From patent publication US20010004528A1, “USE OF 13C NUCLEAR MAGNETIC RESONANCE TO DETECT BINDING TO TARGET MOLECULES” (priority 1995, published 2001)

Target: T1, FKBP (Homo sapiens, UniProt P62942)
T1 construct: made in house; host or cells: E. coli
Assay: Screening for ligands using 13C/1H NMR correlation spectra of 13C-enriched FKBP
Assay type: binding
Description: Uniformly ^13C-enriched FKBP was prepared in accordance with the procedures detailed above. […]
Two-dimensional ^13C/^1H NMR spectra were generated at 30° C. on a Bruker DRX500 NMR spectrometer equipped with a triple resonance probe and Bruker sample changer. The ^13C/^1H HSQC spectra were acquired as 64×1024 complex points using sweep widths of 3771 Hz (^13C, t1) and 8333 Hz (^1H, t2). A delay of 1 second between scans and 8 scans per free induction decay (fid) were employed in the data collection. All NMR spectra were processed and analyzed on Silicon Graphics computers.
A first two-dimensional ^13C/^1H NMR correlation spectrum was acquired for the ^13C-labeled FKBP target molecule as described above. The FKBP target was then exposed to a library mixture of test compounds. Stock solutions of the compounds were made at 100 mM and 1 M. In addition, a combination library was prepared which contained 8-10 compounds per sample at a concentration of 100 mM for each compound.
The pH of the 1 M stock solution was adjusted with acetic acid and ethanolamine so that no pH change was observed upon a 1/10dilution with a 100 mM phosphate buffered solution (pH 7.0). It is important to adjust the pH, because small changes in pH can alter the chemical shifts of the biomolecules and complicate the interpretation of the NMR data.
The compounds in the library were selected on the basis of size (molecular weight=100-300) and molecular diversity. The molecules in the collection had different shapes (for example, flat aromatic rings(s), puckered aliphatic rings(s), straight and branched chain aliphatics with single, double, or triple bonds) and diverse functional groups (for example, carboxylic acids, esters, ethers, amines, aldehydes, ketones, and various heterocyclic rings) to maximize the possibility of discovering compounds that interact with widely diverse binding sites. […]

T1 sequence (P62942 whole entry): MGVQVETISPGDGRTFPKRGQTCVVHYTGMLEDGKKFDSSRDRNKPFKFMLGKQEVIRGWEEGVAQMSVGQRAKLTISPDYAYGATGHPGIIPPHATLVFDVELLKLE

Question: What does the source list for `c1ccc(-c2ncc[nH]2)cc1` [2-phenylimidazole]?
Answer: involvement of alanyl residues in binding (13C/1H correlation spectra) (FKBP selectively 13C labeled at alanyl residues, 2-phenylimidazole 0.25 mM): none of the alanyl residues are involved in the binding; binding site residues from chemical shift changes in 13C/1H correlation spectra (FKBP selectively 13C/15N/2H labeled at valinyl and leucyl residues, 2-phenylimidazole 0.25 mM): binding is occurring at or near the Leu^97 and Val^55 residues; binding to FKBP detected by chemical shift changes in 13C/1H correlation spectra (uniformly 13C-enriched FKBP 0.2 mM, compound about 0.25 mM, phosphate buffer pH 6.5, 30° C.): found to bind to FKBP
